Experimental data: US20250177340A1, “Tartaric Acid Analogs and Uses Thereof” (Lapix Therapeutics, Inc., priority 2021, published 2025)
Blank lines part the entries; values can stand above or below the compound they belong to.

Experiments:
murine CD8+ T cells = assay: Murine CD8+ T-cell proliferation (CFSE), Example 6; format: cell-based, C57BL/6 mice
Experimental: Preparation of test materials: TTA, compound A and compound B were formulated in RPMI media under aseptic conditions. The pH was adjusted to approximately 7.5 before dosing cells.
Tissue culture and dosing: Splenocytes of C57BL/6 mice were stained with CFSE and prepared, cultured, and dosed. Cells were seeded at 1×10^5 cells/well in a 96-well round-bottomed plate.
Controls: Two controls were used. A negative control dosed with 10 ng/ml IL2 was used, and a positive control dosed with 20 μg/ml ConA and 10 ng/ml IL2 was used.
Treatment: After ConA stimulation (10 μg/ml), cells were dosed with 30 mM compound A, B or C with or without 0.1 mM 30:70 PS:DMPC liposomes. All wells were dosed with 10 ng/ml of IL-2.

Granzyme B and IFN-γ [1] = assay: Dose-response of GranzymeB/IFN-γ double positivity in murine CD8+ T-cells, Example 9; format: cell-based, C57BL/6 mice; conditions: Mus musculus, T-cell
Experimental: A dose-response analysis of compounds B-E in murine CD8+ T-cells was conducted to evaluate the effect of dose on GranzymeB/IFN-γ double positivity.
Compound C, D and E were first dissolved in a small volume of DMSO before diluting to the final desired concentration.
Splenocytes from naïve C57BL/6 mice were stained with CFSE, prepared, cultured, and dosed. Cells were seeded at 2×10^5 cells/well. Negative control was dosed with 10 ng/ml IL-2. After ConA stimulation (10 μg/ml), cells were dosed with log 3 dilution of each compound from 3×10^−9 to 30 µM in triplicates. All wells were dosed with 10 ng/ml of IL-2.
Flow cytometer analysis was performed to assess percent CD8+ T-cells and percent activation by double staining for Granzyme B (GzmB) and IFN-γ as described in Example 7. Concentration versus response curve was fitted to a 4- or 5-parameter log-logistic model using the “dre” package in “R”. Both EC50 and EC90 were obtained by model fitting.

[2] = system: T-cells isolated from spleens; assay: FoxP3/KLRG-1/CTLA4 in T-cells isolated from spleens of compound D-treated animals; format: in vivo; conditions: 2.5 mg IV daily for seven days
Experimental: Animals were treated with 2.5 mg of compound D IV daily for seven days. Upon completion of the treatment period, T-cells isolated from spleens of the animals were analyzed by flow cytometry.

KLRG1 = assay: Percent KLRG1+ T-cells in spleens, single dose on Day 7 (Examples 17, 19, 20); format: in vivo, C57BL6 mice; conditions: for activity after oral administration (KLRG1+, PD1+ T-cells): single PO dose: E 2.5 mg, F 1 mg, G 1 mg; for percent KLRG1+ T-cells compared to untreated animals: single dose, E 0.1, 0.25, 1 mg IV or 2.5 mg PO, F 0.03-1 mg IV or 1 mg PO, G 0.1, 0.4, 1 mg IV or 1 mg PO
Experimental: (§1) Melanoma B16F10 cells were injected IV into C57BL6 mice on Day 0. On Day 7, mice were administered a single dose of 0.1 mg, 0.25 mg, or 1 mg of Compound E IV or 2.5 mg Compound E PO. One group was left untreated. Three mice at each time point were sacrificed, and their spleens were extracted. Percent KLRG1+ and PD-1^+ T-cells were quantified. Briefly, single-cell suspensions prepared from the extracted spleens were prepared and stained for KLRG1, PD-1 and CD8, and analyzed by flow cytometry.
as §1, with “of 0.03 mg,” for “of”, “0.3 mg” for “0.25 mg,”, “mg” for “mg of”, “F” for “E”, “1” for “2.5”
as §1, with “0.4” for “0.25”, “mg” for “mg of”, “G” for “E”, “1” for “2.5”

PD-1 = assay: Percent PD-1+ T-cells in spleens, single dose on Day 7 (Examples 17, 19, 20); format: in vivo, C57BL6 mice; conditions: E 0.1, 0.25, 1 mg IV or 2.5 mg PO, F 0.03-1 mg IV or 1 mg PO, G 0.1, 0.4, 1 mg IV or 1 mg PO
Experimental: as §1
as §1, with “of 0.03 mg,” for “of”, “0.3 mg” for “0.25 mg,”, “mg” for “mg of”, “F” for “E”, “1” for “2.5”
as §1, with “0.4” for “0.25”, “mg” for “mg of”, “G” for “E”, “1” for “2.5”

human CD8+ T cells [3] = assay: Survival of PS-treated human CD8+ T-cells (viability dye, microscopy)
Experimental: (§13) CD8+ T-cells were stained with CFSE (ThermoFisher Catalog No. 50-169-50), and prepared, cultured, and dosed as described herein. Briefly, cells were seeded at 4×10^5 cells/well. IL-2 (10 ng/ml) was used as a negative control, and ConA (20 μg/ml) in conjunction with IL-2 (10 ng/ml) was used as a positive control. After ConA stimulation (10 μg/ml) in the presence of 10 ng/ml IL-2, cells were dosed in duplicate with PS:DMPC liposomes to give a total of 100, 10, 1, or 0.1 mM of PS. […] Flow cytometer analysis was performed to assess cell survival by viability dye and proliferation by CFSE (gated on survived CD8+ T-cells).
(§14) Cells were observed via a microscope at the end of the incubation period.

TGF-β = TGF-β ELISA in RAW 264.7 cells; format: cell-based, mouse; conditions: 0.0001-100 mM, human FVIII antigen
Experimental: (§2) RAW 264.7 cells were prepared, cultured, and dosed as described herein. The RAW 264.7 cell line is an immortalized mouse monocyte macrophage that is very close to primary cells, easy to maintain with minimum manipulation, and known to express TIM4. […] OPLS and TTA were dosed at 100, 70, 50, 30, 10, 3, 1, 0.3, 0.1, 0.03, 0.01, 0.003, 0.001, 0.0003 and 0.0001 mM. Finally, 100 μl of 40 μg/ml of human FVIII as a sample antigen was added to each well. LPS and free protein were used as positive and baseline controls, respectively. OPLS and TTA were formulated in RPMI media in aseptic conditions. The pH was adjusted to approximately 7.5 before dosing cells. TNF-α and TGF-β ELISAs were conducted as per the manufacturer's instructions (TNF-α ELISA kit: R&D systems DY410; TGF-β ELISA kit: R&D systems DY1679).

human CD8+ T cells [4] = assay: Proliferation of PS-treated human CD8+ T-cells (CFSE); format: cell-based; conditions: 70 mM L-(+)-tartaric acid with 0.1 mM PS
From the text: (§3) 30:70 PS:DMPC liposomes were synthesized in PBS.

PD-1 and TIM3 = PD-1 and TIM3 expression on PS-treated human CD8+ T-cells (flow cytometry); format: cell-based
From the text: as §3

TNF-α = TNF-α ELISA in RAW 264.7 cells; format: cell-based, mouse; conditions: 0.0001-100 mM, human FVIII antigen
Experimental: as §2

murine CD8+ T-cells = assay: Murine CD8+ T-cell proliferation concentration-response (CFSE), Example 7; format: cell-based, C57BL/6 mice
From the text: (§4) In this study, the effects of increasing doses of compound B and compound C on proliferation (CFSE staining), activation (Granzyme B and IFN-γ), and checkpoint modulation (PD1 and TIM3) of murine CD8+ T-cells in the presence and absence of phosphatidylserine (PS) were explored.
(§5) Preparation of test materials: 30:70 PS:DMPC liposomes were synthesized in PBS. […] Compound C was first dissolved in a small volume of DMSO before diluting to the final desired concentration.
(§6) Tissue culture and dosing: Splenocytes of C57BL/6 mice were stained with CFSE and prepared, cultured, and dosed. Cells were seeded at 4×10^5 cells/well.
(§7) Controls: Two controls were used. A negative control dosed with 10 ng/ml IL-2 was used, and a positive control dosed with 20 μg/ml ConA and 10 ng/ml IL-2 was used.
(§8) Treatment: After ConA stimulation (10 μg/ml), cells were dosed with log 3 dilution of compound B or compound C to cover a range from 1×10^−3 to 30 mM in duplicates with or without 0.1 mM PS:DMPC liposomes. All wells were dosed with 10 ng/ml of IL-2.
(§9) Flow cytometer: Flow cytometer analysis was performed to assess cell proliferation by CFSE, activation by double staining for Granzyme B (GzmB) and IFN-γ, checkpoint modulation by double staining for PD-1 and TIM3.
(§10) Exposure-response analysis: Change from baseline was calculated for each marker as follows:
(§11) Concentration versus change was fitted to an appropriate three-, four- or five-parameter log-logistic model using “dre” package in “R.”
The fold change from baseline of CD8+ T-cells proliferation as a function of increasing doses of compound B was calculated using equation 1, where ResponseControl was the proliferation of cells treated with IL-2 alone and Responsetreatment was the proliferation at each dose of compound B. The baseline PS response was calculated using the same equation where Responsetreatment was the proliferation of cells treated with 0.1 mM PS.

human CD8+ T cells [5] = system: human CD8+ T cells
Experimental: as §13, §14

TIM3 and PD-1 = assay: TIM3+/PD-1+ double-positive murine CD8+ T-cells, Example 7; format: cell-based, C57BL/6 mice; conditions: controls: high dose ConA; 0.1 mM PS liposomes
From the text: as §4, §5, §6, §7, §8, §9, §10, §11
(§12) The fold change from baseline of TIM3+/PD-1+ double-positive CD8+ T-cells as a function of increasing doses of compound B was calculated using equation 1, where Responsecontrol was TIM3+/PD-1+ double-positive CD8+ T-cells in cells treated with IL-2 alone and Responsetreatment was TIM3+/PD-1+ double-positive CD8+ T-cells at each dose of compound B. The baseline PS response was calculated using the same equation with Responsetreatment as the TIM3+/PD-1+ double-positive CD8+ T-cells treated with 0.1 mM PS.

Granzyme B and IFN-γ [6] = assay: GzmB+/IFN-γ+ double-positive murine CD8+ T-cells, Example 7; format: cell-based, C57BL/6 mice; conditions: controls: high dose ConA; 0.1 mM PS liposomes
From the text: as §4, §5, §6, §7, §8, §9, §10, §11
as §12, with “GzmB+/IFN-γ+” for “of TIM3+/PD-1+”, “GzmB+/IFN-γ+” for “TIM3+/PD-1+”

[7] = 30 mM, in absence of PS, ConA 10 μg/ml
[8] = 70 mM L-(+)-tartaric acid with 0.1 mM PS

Compound: O=C(O)[C@H](O)[C@@H](O)C(=O)OCc1ccccc1 [A, (2R,3R)-4-(benzyloxy)-2,3-dihydroxy-4-oxobutanoic acid]
percent of CD8+ T-cell proliferation (murine CD8+ T cells; [7]): 64.4%

EC50 (Granzyme B and IFN-γ [1]; 4-parameter model): 4.1 nM | EC90 (Granzyme B and IFN-γ [1]; 4-parameter model): 50 nM | EC50 (Granzyme B and IFN-γ [1]; 5-parameter model): 3.5 nM | EC90 (Granzyme B and IFN-γ [1]; 5-parameter model): 39 nM
Compound: O=C(O)[C@H](O)[C@@H](O)C(=O)OCCC1c2ccccc2-c2ccccc21 [Compound D, (2R,3R)-4-(2-(9H-fluoren-9-yl)ethoxy)-2,3-dihydroxy-4-oxobutanoic acid]
Emax (Granzyme B and IFN-γ [1]; FIG. 4, 5-parameter fit, read-out: maximal response (GzmB/IFN-γ double positive CD8+ T-cells)): 40% | CTA4+/CD8+ T-cells [2]: 0.27% | FoxP3+ CD4+ T-cells [2]: 5.42% | KLRG-1+/CD8+ T-cells [2]: 5.11% | reduction in CTA4+/CD8+ T-cells [2]: 27% | reduction in FoxP3+ CD4+ T-cells compared to control animals [2]: 58% | reduction in KLRG-1+/CD8+ T-cells [2]: 80%

Compound: O=C(O)[C@H](O)[C@@H](O)C(=O)NCCn1c2ccccc2c2ccccc21 [Compound F, (2R,3R)-4-((2-(9H-carbazol-9-yl)ethyl)amino)-2,3-dihydroxy-4-oxobutanoic acid]
activity after oral administration (KLRG1+, PD1+ T-cells) (KLRG1): effective after oral administration | percent KLRG1+ T-cells compared to untreated animals (KLRG1): dose-dependent reduction | percent PD1+ T-cells compared to untreated animals (PD-1): dose-dependent reduction

Compound: O=C(O)[C@H](O)[C@@H](O)C(=O)NCCCc1ccccc1 [Compound G, (2R,3R)-2,3-dihydroxy-4-oxo-4-((3-phenylpropyl)amino)butanoic acid]
activity after oral administration (KLRG1+, PD1+ T-cells) (KLRG1): effective after oral administration | percent KLRG1+ T-cells compared to untreated animals (KLRG1): dose-dependent reduction | percent PD1+ T-cells compared to untreated animals (PD-1): dose-dependent reduction

Compound: O=C(O)[C@H](O)[C@@H](O)C(=O)O [L-(+)-tartaric acid]
increase in viable CD8+ T cells compared to PS-treated cells alone (human CD8+ T cells [3]; [8]): 65% | percent of CD8+ T-cell proliferation (murine CD8+ T cells; [7]): 41.74% | TGF-β production (TGF-β): without stimulating TGF-β production | effect on PS-suppressed CD8+ T-cell proliferation/accumulation (CFSE) (human CD8+ T cells [4]): partially reversed the effect of PS | PD-1 expression (PD-1 and TIM3; [8]): 23% | TIM3 expression (PD-1 and TIM3; [8]): 0.527% | decrease of TIM3 expression compared to PS only group (PD-1 and TIM3; [8]): about 66% | frequency of cells co-expressing PD-1 and TIM3 (PD-1 and TIM3; [8]): 0.198% | reduction of PD-1 expression compared to PS only-treated group (PD-1 and TIM3; [8]): about 35% | reduction of cells co-expressing PD-1 and TIM3 compared to PS only (PD-1 and TIM3; [8]): 91.4% | TNF-α production (TNF-α): stimulate TNF-α production

microscopic observation of cells (human CD8+ T cells [5]): did not look healthy
Compound: phosphatidylserine [PS, reference compound]
fold increase in CD8+ T-cell proliferation compared to control cells (murine CD8+ T-cells; 0.1 mM PS): 28 fold | percent proliferation of CD8+ T-cells (murine CD8+ T-cells; controls: high dose ConA 20 μg/ml, 0.1 mM PS liposomes): 4.24% | CD8+ T-cell survival (human CD8+ T cells [3]; controls: ConA 20 μg/ml + IL-2, 0.1 mM PS after ConA stimulation): 25.9% | percent of CD8+ T-cell proliferation (murine CD8+ T cells; controls: ConA 20 μg/ml + IL2, 0.1 mM PS): 4.84% | fold increase in TIM3+/PD-1+ double-positive CD8+ T-cells vs negative control (TIM3 and PD-1): 1.27 fold | GzmB+/IFN-γ+ double-positive CD8+ T-cells relative to negative control (Granzyme B and IFN-γ [6]): one half | PD-1 expression (PD-1 and TIM3; 0.1 mM PS only): 35% | TIM3 expression (PD-1 and TIM3; 0.1 mM PS only): 1.53% | frequency of cells co-expressing PD-1 and TIM3 (PD-1 and TIM3; 0.1 mM PS only): 2.31%
